pIC50: −log10 of the molar value.
How the values were obtained:
phosphorylated PDK1 = phosphorylated PDK1 (Homo sapiens (Human), UniProt O15530); experiment: PDK1 kinase assay (coupled PDK1/AKT/FAM-crosstide, IMAP); type: biochemical; conditions: 0.5 nM phosphorylated PDK1, 24 μM ATP; read-out: Inhibition of phospo-PDK1 in vitro IC50
dephosphorylated PDK1 = dephosphorylated PDK1 (Homo sapiens (Human), UniProt O15530); experiment: as above; type: biochemical; conditions: 25 nM un-phosphorylated PDK1, 24 μM ATP; read-out: Inhibition of dephospo-PDK1 in vitro IC50
Protocol: A PDK1 kinase assay was performed as follows. PDK1 (amino acids 51-360) and AKT2 (amino acids 140-467 fused to PIFtide, amino acids […]) were expressed as N-terminally tagged GST fusion proteins in insect cells and purified to greater than 90% homogeneity. PDK1 protein was divided into two fractions, one of which was subsequently dephosphorylated. To generate dephosphorylated PDK1, the PDK1 was reacted with GST-tagged lambda-phosphatase in vitro. GST was subsequently cleaved proteolytically for both phosphorylated and dephosphorylated PDK1. Protein preparations were run on glutathione Sepharose columns to remove GST and GST-tagged lambda-phosphatase, if present. Phosphorylated PDK1 and dephosphorylated PDK1 were verified by mass-spectrometry. Enzyme activity was determined in a coupled PDK1/AKT/FAM-crosstide assay using either phosphorylated or unphosphorylated PDK1 and phosphorylation of FAM-crosstide was determined by standard IMAP protocol (Molecular Devices). For inhibition studies, compounds were titrated 3-fold in DMSO and diluted 40-fold into assay buffer (10 mM Tris HCl pH7.2; 10 mM MgCl2; 0.01% Triton X-100; 1 mM DTT) containing PDK1, AKT2, and FAM-crosstide. (final concentrations: 25 nM un-phosphorylated PDK1 or 0.5 nM phosphorylated PDK1, 30 nM unphosphorylated AKT2, and 100 nM crosstide substrate). The kinase reaction was initiated by adding ATP to a final concentration of 24 μM for both forms of PDK1 and incubated at 25° C. for 30 min. To detect assay product, the kinase reaction was combined with Progressive Binding Solution (1:600 Progressive Binding Reagent, 50% Buffer A, 50% Buffer B, Molecular Devices) in a 1:3 ratio. The mixture was incubated for 2 hours at 25° C. and the plate was scanned on an Analyst AD with excitation at 485 nm and emission at 530 nm. The fluorescence polarization value “P” is defined by the equation below. The value “mP” is generated by multiplying the P value for each reaction well by a factor of 1000. The value “ΔmP” for each well is the mP value for that well minus the mP value for the average negative control. P=(Fpar−Fperp)/(Fpar+Fperp) Eq.:
Where “par” is fluorescence intensity parallel to the excitation plane; and “perp” is fluorescence intensity perpendicular to the excitation plane. ΔmP values were plotted as a function of compound concentration and the data were analyzed with a 4-parameter fit using GraphPad Prism software.

Sequence of phosphorylated PDK1 (O15530 51-360): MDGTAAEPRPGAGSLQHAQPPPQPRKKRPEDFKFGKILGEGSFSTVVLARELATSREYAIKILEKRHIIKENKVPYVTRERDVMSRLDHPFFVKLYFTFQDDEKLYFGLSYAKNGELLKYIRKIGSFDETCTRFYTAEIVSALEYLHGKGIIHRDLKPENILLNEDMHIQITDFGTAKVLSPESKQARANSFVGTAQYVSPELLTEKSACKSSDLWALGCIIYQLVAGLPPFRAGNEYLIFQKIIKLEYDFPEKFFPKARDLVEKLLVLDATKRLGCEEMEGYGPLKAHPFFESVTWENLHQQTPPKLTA
Sequence of dephosphorylated PDK1 (O15530 51-360): as above

Row | Structure (SMILES) | pIC50 (phosphorylated PDK1) | pIC50 (dephosphorylated PDK1)
1 | O=C(NCCCCCNc1nc2ccccc2o1)c1cccn(Cc2cccc(Cl)c2)c1=O [Cpd 100] | < 5.00 | 5.00 to 6.30
2 | Cc1sc(CNC(=O)c2cccn(Cc3ccc(F)c(F)c3)c2=O)nc1-c1c[nH]c2ncccc12 [Cpd 275] | 5.00 to 6.30 | > 6.30
3 | Nc1cnc(Nc2cccc(NC(=O)N3CCCC3)c2)nc1NCCCCCCNC(=O)c1cccn(Cc2cccc(Cl)c2)c1=O [Cpd 249] | < 5.00 | > 6.30
4 | COc1ccnc(NCCCCCNC(=O)c2cccn(Cc3ccc(F)c(F)c3)c2=O)n1 [Cpd 107] | 5.00 to 6.30 | > 6.30
5 | Cn1c(=O)[nH]c2cc(OCCNC(=O)c3cccn(Cc4ccc(F)c(F)c4)c3=O)ccc21 [Cpd 119, N-(3-(4-chloro-H-pyrrolo[2,3-b]pyridin-3-yl)benzyl)-1-(3,4-difluorobenzyl)-2-oxo-1,2-dihydropyridine-3-carboxamide] | > 6.30 | > 6.30
6 | O=C(NCCSc1ccc2[nH]c(=O)[nH]c2c1)c1cccn(Cc2ccc(F)c(F)c2)c1=O [Cpd 118] | 5.00 to 6.30 | > 6.30
7 | COc1ccnc(NCCC#CCCNC(=O)c2cccn(Cc3ccc(Cl)c(Cl)c3)c2=O)n1 [Cpd 255] | > 6.30 | > 6.30
8 | COc1ccnc(NCCC#CCNC(=O)c2cccn(Cc3cccc(Cl)c3)c2=O)n1 [Cpd 262] | > 6.30 | > 6.30
9 | COc1ccnc(NCCC#CCCNC(=O)c2cc(Cl)cn(Cc3ccc(Cl)cc3)c2=O)n1 [Cpd 256] | 5.00 to 6.30 | > 6.30
10 | COc1ccnc(NCCCCCNC(=O)c2cc(Cl)cn(Cc3ccc(Cl)cc3)c2=O)n1 [Cpd 252] | 5.00 to 6.30 | > 6.30
11 | CC(=O)Nc1cc(NCCCCCNC(=O)c2cccn(Cc3cccc(Cl)c3)c2=O)ncn1 [Cpd 99] | < 5.00 | 5.00 to 6.30
12 | Cc1nc(CNC(=O)c2cccn(Cc3ccc(F)c(F)c3)c2=O)sc1-c1c[nH]c2ncccc12 [Cpd 115] | 5.00 to 6.30 | > 6.30
13 | COc1ccnc(NCCCCCNC(=O)c2cc(Br)cn(Cc3cccc(F)c3)c2=O)n1 [Cpd 253] | 5.00 to 6.30 | > 6.30
14 | C[C@@H](NC(=O)c1cccn(Cc2ccc(F)c(F)c2)c1=O)c1nc(-c2c[nH]c3ncccc23)cs1 [Cpd 114] | > 6.30 | > 6.30
15 | COc1ccnc(NCCCCCNC(=O)c2cccn(Cc3cc(F)c(F)c(F)c3)c2=O)n1 [Cpd 267] | – | > 6.30
16 | CNC(=O)[C@H](COc1ccc2[nH]c(=O)[nH]c2c1)NC(=O)c1cccn(Cc2cc(F)c(F)c(F)c2)c1=O [Cpd 157] | > 6.30 | > 6.30
17 | O=C(NCc1cccc(-c2cc[nH]c(=O)c2)c1)c1cccn(Cc2ccc(F)c(F)c2)c1=O [Cpd 224] | – | 5.00 to 6.30
18 | COc1ccnc(NCCC#CCCNC(=O)c2cc(F)cn(Cc3cccc(F)c3)c2=O)n1 [Cpd 258] | > 6.30 | > 6.30
19 | O=C(NCCCCc1c[nH]c2ncccc12)c1cccn(Cc2cc(F)c(F)c(F)c2)c1=O [Cpd 271] | > 6.30 | > 6.30
20 | O=C(NCc1cccc(-c2cc(=O)[nH][nH]2)c1)c1cccn(Cc2ccc(F)c(F)c2)c1=O [Cpd 217] | < 5.00 | 5.00 to 6.30
21 | COc1ccnc(NCCCCCNC(=O)c2cccn(Cc3ccc(Cl)c(Cl)c3)c2=O)n1 [Cpd 104] | 5.00 to 6.30 | > 6.30
22 | COc1ccnc(NCC/C=C/CCNC(=O)c2cccn(Cc3cccc(Cl)c3)c2=O)n1 [Cpd 103, 1-(3,4-Difluoro-benzyl)-2-oxo-1,2-dihydro-pyridine-3-carboxylic acid 3-(4-amino-1H-pyrazolo[3,4-d]pyrimidin-3-yl)-benzylamides] | 5.00 to 6.30 | > 6.30
23 | COc1ccnc(NCCCCCCNC(=O)c2cccn(Cc3cccc(F)c3)c2=O)n1 [Cpd 261] | 5.00 to 6.30 | > 6.30
24 | O=C(NCCOc1ccc2c(c1)[nH]c(=O)n2CCN1CCCC1)c1cccn(Cc2ccc(F)c(F)c2)c1=O [Cpd 130] | 5.00 to 6.30 | 5.00 to 6.30
25 | CNC(=O)C[C@@H](NC(=O)c1cccn(Cc2ccc(F)c(F)c2)c1=O)c1ncc(-c2c[nH]c3ncccc23)o1 [Cpd 248] | – | > 6.30
